Experimental data: patent US8076341B2, “Compounds and use thereof” (Vironova AB, priority 2007, dated 2011)

Experiments:
[1] = tested on: infected and uninfected human lung fibroblasts; test: Toxicity by propidium iodide staining of cell cultures; type: cell-based; details: method and source not stated
Procedure: The concentrations of compounds used in the viral experiments were at the μM level. Cellular toxicity for B-220 has been shown for concentrations above 100 μM.

[2] = tested on: HCMV; test: Test of inhibition of HCMV assembly and egress (modified plaque assay, 3 and 5 dpi); type: cell-based, human cytomegalovirus; details: left until 7 dpi, infected human lung fibroblast cells, IE staining; for Inhibition 3 dpi (%): agent added 3 dpi; for Inhibition 5 dpi (%): agent added 5 dpi
[3] = tested on: human cytomegalovirus (HCMV) strain AD169 and TB 40; type: cell-based; details: human lung fibroblasts, IE staining

Row | Compound | concentrations at which cellular toxicity has been shown [1] | Inhibition 3 dpi (%) [2] | Inhibition 5 dpi (%) [2] | Inhibitory effect (%) as % inhibition of infection [3]
1 | Cc1cc2nc3c4ccccc4n(CCN(C)C)c3nc2cc1C [B-220, 2,3-dimethyl-6-(N,N-dimethylaminoethyl)-6H-indolo(2,3-b)quinoxaline] | above 100 μM | 65-85% | 65-80% | 20%
2 | O=C(O)P(=O)(O)O [Foscavir] |  | 85-100% | 65-85% | 20-50%
3 | Nc1nc(O)c2ncn(COC(CO)CO)c2n1 [Ganciclovir] |  | 100% | 80-95% | 20-30%
4 | Cc1oncc1C(=O)Nc1ccc(C(F)(F)F)cc1 [Leflunomide] |  | 65-80% | 80-90% | 25-50%
